# Laboratory results taken from PubChem BioAssay (NCI).
# Values joined by “and” are separate entries in the source; they are usually repeats but may differ in a detail not shown here. Equal values may be shown once.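 Interpolation was linear, between the two tested concentrations surrounding the appropriate level; five concentrations were tested over 48 hours in 96-well plates. Here, GI50 denotes the concentration required for 50% inhibition of growth. TGI is the concentration that stops growth completely.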
# Experiments:
# Assay in all cases: growth of human tumour cells (NCI), 48 h
# NCI-H23 lung = tested on: NCI-H23 lung
# SF-268 CNS = tested on: SF-268 CNS
# 786-0 renal = tested on: 786-0 renal
# LXFL 529 NSCLC = tested on: LXFL 529 NSCLC
# SK-OV-3 ovarian = tested on: SK-OV-3 ovarian
# NCI-H460 lung = tested on: NCI-H460 lung
# M19-MEL melanoma = tested on: M19-MEL melanoma
# M14 melanoma = tested on: M14 melanoma
# COLO 205 colon = tested on: COLO 205 colon
# HCT-116 colon = tested on: HCT-116 colon
# DMS 114 small cell lung = tested on: DMS 114 small cell lung
# RPMI-8226 leukemia = tested on: RPMI-8226 leukemia
# A498 renal = tested on: A498 renal
# HOP-18 NSCLC = tested on: HOP-18 NSCLC
# UACC-62 melanoma = tested on: UACC-62 melanoma
# SK-MEL-28 melanoma = tested on: SK-MEL-28 melanoma
# K-562 leukemia = tested on: K-562 leukemia
# U251 CNS = tested on: U251 CNS
# DLD-1 colon = tested on: DLD-1 colon
# TK-10 renal = tested on: TK-10 renal
# A549 NSCLC = tested on: A549 NSCLC
# HL-60(TB) leukemia = tested on: HL-60(TB) leukemia
# CCRF-CEM leukemia = tested on: CCRF-CEM leukemia
# HOP-92 NSCLC = tested on: HOP-92 NSCLC
# SNB-78 CNS = tested on: SNB-78 CNS
# OVCAR-3 ovarian = tested on: OVCAR-3 ovarian
# XF 498 CNS = tested on: XF 498 CNS
# UACC-257 melanoma = tested on: UACC-257 melanoma
# SF-295 CNS = tested on: SF-295 CNS
# RXF-631 renal = tested on: RXF-631 renal
# SW-620 colon = tested on: SW-620 colon
# KM20L2 colon = tested on: KM20L2 colon
# CAKI-1 renal = tested on: CAKI-1 renal
# OVCAR-8 ovarian = tested on: OVCAR-8 ovarian
# ACHN renal = tested on: ACHN renal
# EKVX NSCLC = tested on: EKVX NSCLC
# SR leukemia = tested on: SR leukemia
# LOX IMVI melanoma = tested on: LOX IMVI melanoma
# SN12C renal = tested on: SN12C renal
# UO-31 renal = tested on: UO-31 renal
# KM12 colon = tested on: KM12 colon
# OVCAR-4 ovarian = tested on: OVCAR-4 ovarian
# RXF 393 renal = tested on: RXF 393 renal
# SK-MEL-5 melanoma = tested on: SK-MEL-5 melanoma
# HT29 colon = tested on: HT29 colon
# NCI-H226 lung = tested on: NCI-H226 lung
# NCI-H522 lung = tested on: NCI-H522 lung
# IGROV1 ovarian = tested on: IGROV1 ovarian
# MALME-3M melanoma = tested on: MALME-3M melanoma
# SF-539 CNS = tested on: SF-539 CNS
# SNB-19 CNS = tested on: SNB-19 CNS
# HOP-62 NSCLC = tested on: HOP-62 NSCLC
# MOLT-4 leukemia = tested on: MOLT-4 leukemia
# SNB-75 CNS = tested on: SNB-75 CNS
# HCC-2998 colon = tested on: HCC-2998 colon
# SK-MEL-2 melanoma = tested on: SK-MEL-2 melanoma
# DMS 273 small cell lung = tested on: DMS 273 small cell lung
# MDA-MB-231 breast = tested on: MDA-MB-231 breast
# HCT-15 colon = tested on: HCT-15 colon
# DU-145 prostate = tested on: DU-145 prostate
# OVCAR-5 ovarian = tested on: OVCAR-5 ovarian
# HS 578T breast = tested on: HS 578T breast
# NCI/ADR-RES ovarian = tested on: NCI/ADR-RES ovarian
smiles,measurement,setting,value
NS(=O)(=O)c1ccc(NC(=O)c2cccn3c(=O)c4ccccc4nc23)cc1,TGI,NCI-H23 lung,> 100 µM
same,TGI,SF-268 CNS,> 100 µM
same,TGI,786-0 renal,> 100 µM
same,TGI,LXFL 529 NSCLC,> 100 µM
same,TGI,SK-OV-3 ovarian,> 100 µM
same,TGI,NCI-H460 lung,> 100 µM
same,TGI,M19-MEL melanoma,> 100 µM
same,TGI,M14 melanoma,> 100 µM
same,TGI,COLO 205 colon,> 100 µM
same,TGI,HCT-116 colon,> 100 µM
same,TGI,DMS 114 small cell lung,> 100 µM
same,TGI,RPMI-8226 leukemia,> 100 µM
same,TGI,A498 renal,> 100 µM
same,TGI,HOP-18 NSCLC,> 100 µM
same,TGI,UACC-62 melanoma,> 100 µM
same,TGI,SK-MEL-28 melanoma,> 100 µM
same,TGI,K-562 leukemia,> 100 µM
same,TGI,U251 CNS,> 100 µM
same,TGI,DLD-1 colon,> 100 µM
same,TGI,TK-10 renal,> 100 µM
same,TGI,A549 NSCLC,> 100 µM
same,TGI,HL-60(TB) leukemia,> 100 µM
same,TGI,CCRF-CEM leukemia,> 100 µM
same,TGI,HOP-92 NSCLC,> 100 µM
same,TGI,SNB-78 CNS,> 100 µM
same,TGI,OVCAR-3 ovarian,> 100 µM
same,TGI,XF 498 CNS,> 100 µM
same,TGI,UACC-257 melanoma,> 100 µM
same,TGI,SF-295 CNS,> 100 µM
same,TGI,RXF-631 renal,> 100 µM
same,TGI,SW-620 colon,> 100 µM
same,TGI,KM20L2 colon,> 100 µM
same,TGI,CAKI-1 renal,> 100 µM
same,TGI,OVCAR-8 ovarian,> 100 µM
same,TGI,ACHN renal,> 100 µM
same,TGI,EKVX NSCLC,> 100 µM
same,TGI,SR leukemia,> 100 µM
same,TGI,LOX IMVI melanoma,> 100 µM
same,TGI,SN12C renal,> 100 µM
same,TGI,UO-31 renal,> 100 µM
same,TGI,KM12 colon,> 100 µM
same,TGI,OVCAR-4 ovarian,> 100 µM
same,TGI,RXF 393 renal,> 100 µM
same,TGI,SK-MEL-5 melanoma,> 100 µM
same,TGI,HT29 colon,> 100 µM
same,TGI,NCI-H226 lung,> 100 µM
same,TGI,NCI-H522 lung,> 100 µM
same,TGI,IGROV1 ovarian,> 100 µM
same,TGI,MALME-3M melanoma,> 100 µM
same,TGI,SF-539 CNS,> 100 µM
same,TGI,SNB-19 CNS,> 100 µM
same,TGI,HOP-62 NSCLC,> 100 µM
same,TGI,MOLT-4 leukemia,> 100 µM
same,TGI,SNB-75 CNS,> 100 µM
CC(C)(C)CC(C)(C)c1ccc(OCCOCC[N+](C)(C)Cc2ccccc2)cc1,TGI,NCI-H23 lung,6.01 µM
same,TGI,SF-268 CNS,5.92 µM
same,TGI,786-0 renal,24.4 µM
same,GI50,SK-OV-3 ovarian,1.46 µM
same,TGI,SK-OV-3 ovarian,2.94 µM and 25.7 µM
same,GI50,NCI-H460 lung,1.58 µM
same,TGI,NCI-H460 lung,3.43 µM and 11.7 µM
same,TGI,M14 melanoma,6.11 µM
same,TGI,COLO 205 colon,2.91 µM
same,GI50,HCT-116 colon,1.38 µM
same,TGI,HCT-116 colon,2.69 µM and 3.55 µM
same,TGI,DMS 114 small cell lung,4.02 µM
same,TGI,RPMI-8226 leukemia,3.83 µM
same,GI50,A498 renal,1.54 µM
same,TGI,HOP-18 NSCLC,7.32 µM
same,TGI,HCC-2998 colon,4.05 µM
same,GI50,UACC-62 melanoma,0.678 µM
same,TGI,UACC-62 melanoma,2.09 µM and 2.67 µM
same,TGI,SK-MEL-28 melanoma,3.68 µM
same,TGI,K-562 leukemia,15.7 µM
same,TGI,U251 CNS,4.44 µM
same,TGI,SK-MEL-2 melanoma,9.71 µM
same,TGI,DLD-1 colon,20.3 µM
same,TGI,TK-10 renal,17.3 µM
same,TGI,A549 NSCLC,32.8 µM
same,TGI,HL-60(TB) leukemia,6.31 µM
same,TGI,DMS 273 small cell lung,2.57 µM
same,TGI,CCRF-CEM leukemia,6.36 µM
same,GI50,HOP-92 NSCLC,0.94 µM
same,TGI,HOP-92 NSCLC,2.27 µM and 4.76 µM
same,TGI,SNB-78 CNS,4.26 µM
same,TGI,OVCAR-3 ovarian,6.8 µM
same,GI50,MDA-MB-231 breast,1.34 µM
same,TGI,MDA-MB-231 breast,2.82 µM
same,TGI,UACC-257 melanoma,3.03 µM
same,TGI,SF-295 CNS,28.4 µM
same,TGI,RXF-631 renal,34.2 µM
same,TGI,SW-620 colon,21 µM
same,TGI,KM20L2 colon,18.8 µM
same,GI50,CAKI-1 renal,15.1 µM
same,TGI,CAKI-1 renal,38.2 µM and 30.8 µM
same,TGI,OVCAR-8 ovarian,12.8 µM
same,GI50,ACHN renal,6.95 µM
same,TGI,ACHN renal,32.9 µM and 26.7 µM
same,TGI,EKVX NSCLC,16.9 µM
same,GI50,HCT-15 colon,16.6 µM
same,TGI,HCT-15 colon,63.6 µM and 51.3 µM
same,GI50,SR leukemia,1.75 µM
same,GI50,DU-145 prostate,1.77 µM
same,TGI,DU-145 prostate,3.36 µM
same,GI50,OVCAR-5 ovarian,1.7 µM
same,TGI,OVCAR-5 ovarian,3.25 µM and 19.2 µM
same,TGI,SN12C renal,12.7 µM
same,GI50,UO-31 renal,12.4 µM
same,TGI,UO-31 renal,45.9 µM and 43 µM
same,TGI,OVCAR-4 ovarian,9.38 µM
same,TGI,RXF 393 renal,10.3 µM
same,GI50,HT29 colon,1.14 µM
same,TGI,HT29 colon,2.49 µM and 3.3 µM
same,TGI,NCI-H226 lung,15.7 µM
same,TGI,NCI-H522 lung,6.42 µM
same,TGI,MALME-3M melanoma,3.64 µM
same,GI50,SF-539 CNS,1.69 µM and 2.88 µM
same,TGI,SF-539 CNS,3.41 µM and 9.48 µM
same,GI50,HS 578T breast,1.61 µM
same,TGI,HS 578T breast,4.81 µM
same,TGI,SNB-19 CNS,11.9 µM
same,TGI,HOP-62 NSCLC,33.5 µM
same,GI50,NCI/ADR-RES ovarian,16.2 µM
same,TGI,NCI/ADR-RES ovarian,38.8 µM
same,TGI,MOLT-4 leukemia,6.05 µM
same,GI50,SNB-75 CNS,0.962 µM
same,TGI,SNB-75 CNS,2.34 µM and 5.55 µM
